Activity calls are given as the source filed them. No rule for the calls is given here.
Test system: CCRIS mutagenicity, Ames/micronucleus/aberration tests
Assay: CCRIS mutagenicity studies
Settings: Test System: AMES SALMONELLA TYPHIMURIUM, Method: PREINCUBATION

Measured: mutagenic call

CCN(C(=O)N(CC)c1ccccc1)c1ccccc1
inactive: Strain/Indicator: TA97, Metabolic Activation: HAMSTER, LIVER, S-9, AROCLOR 1254 (10%) inactive; negative | Strain/Indicator: TA97, Metabolic Activation: HAMSTER, LIVER, S-9, AROCLOR 1254 (30%) inactive; negative | Strain/Indicator: TA97, Metabolic Activation: NONE inactive; negative | Strain/Indicator: TA97, Metabolic Activation: RAT, LIVER, S-9, AROCLOR 1254 (10%) inactive; negative | Strain/Indicator: TA97, Metabolic Activation: RAT, LIVER, S-9, AROCLOR 1254 (30%) inactive; negative | Strain/Indicator: TA98, Metabolic Activation: HAMSTER, LIVER, S-9, AROCLOR 1254 (10%) inactive; negative | Strain/Indicator: TA98, Metabolic Activation: HAMSTER, LIVER, S-9, AROCLOR 1254 (30%) inactive; negative | Strain/Indicator: TA98, Metabolic Activation: NONE inactive; negative | Strain/Indicator: TA98, Metabolic Activation: RAT, LIVER, S-9, AROCLOR 1254 (10%) inactive; negative | Strain/Indicator: TA98, Metabolic Activation: RAT, LIVER, S-9, AROCLOR 1254 (30%) inactive; negative | Strain/Indicator: TA100, Metabolic Activation: HAMSTER, LIVER, S-9, AROCLOR 1254 (10%) inactive; negative | Strain/Indicator: TA100, Metabolic Activation: HAMSTER, LIVER, S-9, AROCLOR 1254 (30%) inactive; negative | Strain/Indicator: TA100, Metabolic Activation: NONE inactive; negative | Strain/Indicator: TA100, Metabolic Activation: RAT, LIVER, S-9, AROCLOR 1254 (10%) inactive; negative | Strain/Indicator: TA100, Metabolic Activation: RAT, LIVER, S-9, AROCLOR 1254 (30%) inactive; negative | Strain/Indicator: TA1535, Metabolic Activation: HAMSTER, LIVER, S-9, AROCLOR 1254 (10%) inactive; negative | Strain/Indicator: TA1535, Metabolic Activation: HAMSTER, LIVER, S-9, AROCLOR 1254 (30%) inactive; negative | Strain/Indicator: TA1535, Metabolic Activation: NONE inactive; negative | Strain/Indicator: TA1535, Metabolic Activation: RAT, LIVER, S-9, AROCLOR 1254 (10%) inactive; negative | Strain/Indicator: TA1535, Metabolic Activation: RAT, LIVER, S-9, AROCLOR 1254 (30%) inactive; negative

— PubChem BioAssay AID1259407 (Chemical Carcinogenesis Research Information System (CCRIS), 2018)
